From patent US11312737B2, “Amide-linked EP4 agonist-bisphosphonate compounds and uses thereof” (SIMON FRASER UNIVERSITY, priority 2015, dated 2022)
One block for each compound: values may come before it.

Columns and labels:
[1] = In vivo uptake and release studies of tritium labelled C3-conjugate over 28 days; settings: rat
Protocol: In vivo uptake and release studies using tritium labelled C3-conjugate compound were performed. After intravenous dosing of 1-5 μCi/5 mg/kg of [^3H]-C3 to 15 rats, groups of 3 rats were euthanized at each time point a at t=6 h, 24 h, 7 d, 14 d, 28 d). The radioactivity in blood samples, spleen, liver and long bones was counted for each group of rats. […] After one week, 53% of label was eliminated and only traces were detected after 28 days (FIG. 6). In spleen, the counted radioactivity decreased from 1% 6 hours after dosing to 0.4% at t=28 days (FIG. 6).

[2] = In vivo uptake studies of tritium labelled C3, C4 and C5-conjugates 6 hours after dosing; settings: rat; for % of the initial dose found in muscle: 6 hours after dosing; for uptake into long bones, % of initial dose: 6 hours after injection, tritium label
Protocol: The three conjugate compounds, C3, C4 and C5, were radiolabelled with tritium in the EP4 agonist moiety and used to monitor in vivo distribution in rat organs and uptake into bone after intravenous dosing.
The radioactivity in organs (heart, kidney, brain, muscle, one piece of muscle attached to bone, spleen and liver) was counted 6 hours after dosing (FIG. 3). For the C3-conjugate compound, calculations were done based on results obtained from two rats. Most of the labelled conjugate compounds were taken up into liver (65-74%), and about 1% and 0.2% were found in spleen and kidneys for all labelled conjugate compounds, after 6 hours. About 0.2% of the initial dose of the C4 and C5-conjugate compounds, and 2% of the C3-conjugate compound, was found in muscle. All other organs contained 0.05% of the initial dose of the conjugate compounds.
Finally, the uptake of the tritiated C3, C4 and C5-conjugate compounds into bones was counted (FIG. 4). All three conjugate compounds were well taken up into bone.

leukocytes = test: Neutrophil function effects; format: cell-based; settings: for neutrophil speed / activity in leukocytes (neutrophil function): FIG. 13
[3] = Stability of conjugate compounds in rat plasma; settings: fresh rat plasma, 37° C., 100 μg/mL
Protocol: The amide-linked conjugate compounds were examined for their stability in rat plasma. […] The mixture was then incubated at 37° C. for 24 h. Aliquots of 10 μL were removed at 0, 2, 4, 6, 7 and 24 h, mixed to 10 mg of bone powder and 10-fold diluted with water in a 0.6 mL Eppendorf tube. A gentle stirring was applied for 20 min. 50 μL were then used to count the activity.

counted radioactivity in spleen ([1]; 6 hours after dosing): 1% | tritiated conjugate found in liver ([1]; 6 hours after injection): 69% | tritiated conjugate in liver ([1]; after 24 hours): remained in a high proportion | conjugate remained attached to bone ([1]; after 7 days, tritium label): 5.5% | tritiated conjugate in liver ([1]; after 28 days): only traces | label eliminated from liver ([1]; after one week): 53% | half-life (tritium label on bone) ([1]; calculated from bone data over 28 days): about 8 days | % of the initial dose observed in bone ([1]; end of the study (28 days), tritium label): 1.4% | activity detected in the bloodstream ([1]; over 28 days, tritium label): Very low activity | counted radioactivity in spleen ([1]; t=28 days): 0.4% | clearance from plasma ([1]; tritium label): rapid clearance | % of the initial dose found in muscle [2]: ~2% | hydrolysis after 24 h-incubation [3]: About 10%
Structure (SMILES): CCOC(=O)CCCCCCN1C(=O)CC[C@@H]1/C=C/[C@@H](OC(=O)Cc1ccc(C(=O)NCCCC(O)(P(=O)(O)O)P(=O)(O)O)cc1)C(F)(F)c1ccccc1 [C3-conjugate, Sodium (4-(4-(2-(((R,E)-4-((R)-1-(7-ethoxy-7-oxoheptyl)-5-oxopyrrolidin-2-yl)-1,1-difluoro-1-phenylbut-3-en-2-yl)oxy)-2-oxoethyl)benzamido)-1-hydroxybutane-1,1-diyl)bis(hydrogen phosphonate)]
neutrophil speed (leukocytes): low neutrophil speed

% of the initial dose found in muscle [2]: About 0.2% | uptake into long bones, % of initial dose [2]: about 10%
Structure (SMILES): CCOC(=O)CCCCCCN1C(=O)CC[C@@H]1/C=C/[C@@H](OC(=O)Cc1ccc(C(=O)NCCC(O)(P(=O)(O)O)P(=O)(O)O)cc1)C(F)(F)c1ccccc1 [C4-conjugate, Sodium (3-(4-(2-(((R,E)-4-((R)-1-(7-ethoxy-7-oxoheptyl)-5-oxopyrrolidin-2-yl)-1,1-difluoro-1-phenylbut-3-en-2-yl)oxy)-2-oxoethypbenzamido)-1-hydroxypropane-1,1-diyl)bis(hydrogen phosphonate)]
activity in leukocytes (neutrophil function) (leukocytes): active

% of the initial dose found in muscle [2]: About 0.2% | uptake into long bones, % of initial dose [2]: about 10%
Structure (SMILES): CCOC(=O)CCCCCCN1C(=O)CC[C@@H]1/C=C/[C@@H](OC(=O)Cc1ccc(C(=O)NCCCCCC(O)(P(=O)(O)O)P(=O)(O)O)cc1)C(F)(F)c1ccccc1 [C5-conjugate, Sodium (6-(4-(2-(((R,E)-4-((R)-1-(7-ethoxy-7-oxoheptyl)-5-oxopyrrolidin-2-yl)-1,1-difluoro-1-phenyibut-3-en-2-yl)oxy)-2-oxoethyl)benzamido)-1-hydroxyhexane-1,1-diyl)bis(hydrogen phosphonate)]

Structure (SMILES): CCOC(=O)CCCCCCN1C(=O)CC[C@@H]1/C=C/[C@@H](O)C(F)(F)c1ccccc1 [EP4 agonist, ethyl 7-((R)-2-((R,E)-4,4-difluoro-3-hydroxy-4-phenylbut-1-en-1-yl)-5-oxopyrrolidin-1-yl)heptanoate]
neutrophil speed (leukocytes): low neutrophil speed

Structure (SMILES): NCCCC(O)(P(=O)(O)O)P(=O)(O)O [alendronate, 4-amino-1-hydroxybutylidene-1,1-bisphosphonic acid monosodium trihydrate, reference compound]
activity in leukocytes (neutrophil function) (leukocytes): active

Structure (SMILES): O=C(O)Cc1ccc(C(=O)NCCCC(O)(P(=O)(O)O)P(=O)(O)O)cc1 [fragment 4, Sodium 2-(4-((4-hydroxy-4,4-bis(hydroxyoxidophosphoryl)butyl)carbamoyl)phenyl)acetate]
biological activity compared to alendronate alone (leukocytes): biologically inactive | activity in leukocytes (neutrophil function) (leukocytes): neither fragment 4 nor 5 exhibited significant activity

Structure (SMILES): O=C(O)Cc1ccc(C(=O)NCCC(O)(P(=O)(O)O)P(=O)(O)O)cc1 [fragment 5, Sodium2-(4-((3-hydroxy-3,3-bis(hydroxyoxidophosphoryl)propyl)carbamoyl)phenyl)acetate]
activity in leukocytes (neutrophil function) (leukocytes): neither fragment 4 nor 5 exhibited significant activity

Structure (SMILES): NCCC(O)(P(=O)(O)O)P(=O)(O)O [pamidronate, 3-amino-1-hydroxypropylidene-1,1-bisphosphonic acid, reference compound]
activity in leukocytes (neutrophil function) (leukocytes): active
